Source: ChEMBL document CHEMBL1143441, “New classes of Gram-positive selective antibacterials: inhibitors of MRSA and surrogates of the causative agents of anthrax and tuberculosis” (2008)
Values after ≈ are worked out from the molar mass of the structure shown.

System: Mycobacterium tuberculosis
Assay: Antimicrobial activity against Mycobacterium bovis BCG by NCCLS M7-A6 method
Assay type: functional
Details: variant bovis BCG

COc1cc(O)cc(/C=C/c2ccccc2)c1 [PINOSYLVIN METHYL ETHER]
MIC: 26 µg/mL (≈ 115 µM)
